Measured values: patent US8822506B2, “Use of succinate dehydrogenase inhibitors for controlling powdery mildew primary infections” (Bayer Cropscience AG, priority 2009, dated 2014)

Key:
Format in all cases: in vivo, Podosphera leucotricha
Powdery mildew [1] = assay: Apple orchard field trial, powdery mildew primary infection of shoots in the following year, assessed 345 days after application 8; conditions: apples, 8 applications; for 345DAT8 [% infested shoots]: 345 days after application 8, no other application, untreated 45.2; for 345DAT8 [% efficacy] (Abbott): 345 days after application 8, infested shoots
Description: (§1) Fluopyram was tested in apples orchard in comparison with already know fungicides active against Powdery mildew such as triadimenol (Bayleton) and boscalid.
(§2) Fluopyram was applied at range of rates: 18.5 g-25 g-37.5-50 g a.s./ha/meter canopy height (g ha/m c.h.). Bayleton was applied at 25 g a.s./ha/m c.h. Boscalid (Cantus WG50) was applied at 125 g a.s./m c.h.
(§3) During the spray season, the compounds were applied at apple susceptible stages from BBCH09 (green leaf tips 5 mm above bud scales to BBCH73 Fruit size between 20 and 40 mm (as described in BBCH Monograph, 2. Edition, 2001, edited by Uwe Meier, Federal Biological Research Centre for Agriculture and Forestry) in order to protect leaves, buds and shoots against Powdery mildew. The compounds have been applied eight times with an interval of ten days during spray season.
(§4) The type of assessments of infections was: • % infested area on leaves (severity) and % infested leaves (incidence) were assessed 10 days after application 8 (10DAT8). • Count and % infested shoots (primary infection) were assessed 345 days after application 8 (345 DAT8). Results

Powdery mildew [2] = assay: Apple orchard field trial, powdery mildew secondary infections on leaves (incidence), assessed 10 days after application 8; conditions: for 10DAT8 [% infested leaves] / 10DAT8 [% efficacy] (Abbott): apples, 10 days after application 8; for 10DAT8 [% infested leaves]: 8 applications at 10-day interval, untreated 96; for 10DAT8 [% efficacy] (Abbott): 8 applications, infested leaves
Description: as §1, §2, §3, §4

Powdery mildew [3] = assay: Apple orchard field trial, powdery mildew primary infection of shoots in the following year, assessed 345 days after application 8; conditions: proximate year (assessment 345DAT8), without any other application; dose rate relation, 18.5 to 50 g a.s./m c.h.

O=C(Nc1ccccc1-c1ccc(Cl)cc1)c1cccnc1Cl [Boscalid, 2-chloro-N-(4′-chlorobiphenyl-2-yl)nicotinamide]
345DAT8 [% infested shoots] (Powdery mildew [1]; 125 g a.s./ha/m c.h.): 30.8% | 345DAT8 [% efficacy] (Abbott) (Powdery mildew [1]; 125 g a.s./ha/m c.h.): 31.7% | 10DAT8 [% infested leaves] (Powdery mildew [2]; 125 g a.s./ha/m c.h.): 46% | 10DAT8 [% efficacy] (Abbott) (Powdery mildew [2]; 125 g a.s./ha/m c.h.): 52.1%

O=C(NCCc1ncc(C(F)(F)F)cc1Cl)c1ccccc1C(F)(F)F [Fluopyram, N-{2-[3-chloro-5-(trifluoromethyl)-2-pyridinyl]ethyl}-2-(trifluoromethyl)benzamide]
345DAT8 [% infested shoots] (Powdery mildew [1]; 18.5 g a.s./ha/m c.h.): 17.7% | 345DAT8 [% efficacy] (Abbott) (Powdery mildew [1]; 18.5 g a.s./ha/m c.h.): 60.9% | 345DAT8 [% infested shoots] (Powdery mildew [1]; 25 g a.s./ha/m c.h.): 14% | 345DAT8 [% efficacy] (Abbott) (Powdery mildew [1]; 25 g a.s./ha/m c.h.): 69% | 345DAT8 [% infested shoots] (Powdery mildew [1]; 37.5 g a.s./ha/m c.h.): 13% | 345DAT8 [% efficacy] (Abbott) (Powdery mildew [1]; 37.5 g a.s./ha/m c.h.): 71.2% | 345DAT8 [% infested shoots] (Powdery mildew [1]; 50 g a.s./ha/m c.h.): 9% | 345DAT8 [% efficacy] (Abbott) (Powdery mildew [1]; 50 g a.s./ha/m c.h.): 80.1% | level of infection measured by the % of primary infested shoots (in words) (Powdery mildew [3]): high decrease of infestation | 10DAT8 [% infested leaves] (Powdery mildew [2]; 18.5 g a.s./ha/m c.h.): 8.7% | 10DAT8 [% efficacy] (Abbott) (Powdery mildew [2]; 18.5 g a.s./ha/m c.h.): 91% | 10DAT8 [% infested leaves] (Powdery mildew [2]; 25 g a.s./ha/m c.h.): 10% | 10DAT8 [% efficacy] (Abbott) (Powdery mildew [2]; 25 g a.s./ha/m c.h.): 89.6% | 10DAT8 [% infested leaves] (Powdery mildew [2]; 37.5 g a.s./ha/m c.h.): 2.7% | 10DAT8 [% efficacy] (Abbott) (Powdery mildew [2]; 37.5 g a.s./ha/m c.h.): 97.2% | 10DAT8 [% infested leaves] (Powdery mildew [2]; 50 g a.s./ha/m c.h.): 0.7% | 10DAT8 [% efficacy] (Abbott) (Powdery mildew [2]; 50 g a.s./ha/m c.h.): 99.3% | efficacy against powdery mildew on apples against secondary infections (in words) (Powdery mildew [2]; assessment 10DAT8, 18.5 g to 50 g a.s./m c.h., visible dose rate effect, superior to triadimenol and boscalid from the lowest rate): excellent efficacy

CC(C)(C)C(O)C(Oc1ccc(Cl)cc1)n1cncn1 (centres unmarked) [Triadimenol]
345DAT8 [% infested shoots] (Powdery mildew [1]; 25 g a.s./ha/m c.h.): 27.5% | 345DAT8 [% efficacy] (Abbott) (Powdery mildew [1]; 25 g a.s./ha/m c.h.): 39.1% | 10DAT8 [% infested leaves] (Powdery mildew [2]; 25 g a.s./ha/m c.h.): 32% | 10DAT8 [% efficacy] (Abbott) (Powdery mildew [2]; 25 g a.s./ha/m c.h.): 66.7%
